In ChEMBL document CHEMBL5390301, “Fragment-Based Screening Identifies New Quinazolinone-Based Inositol Hexakisphosphate Kinase (IP6K) Inhibitors” (ACS Med Chem Lett, 2023):

Test system: not listed separately
Experiment: Selectivity index, ratio of IC50 for IP6K2 (unknown origin) to ratio of IC50 for IP6K3 (unknown origin)

Ratio IC50 | SMILES
5 | O=C(O)c1cccc(-c2oc3cc(O)c(O)cc3c(=O)c2O)c1

Biological target: Inositol hexakisphosphate kinase 1 (Homo sapiens, UniProt Q92551)
Experiment: Inhibition of IP6K1 (unknown origin) incubated for 30 min in presence of ATP by ADPGlo reagent based assay

Chain of Inositol hexakisphosphate kinase 1 (Q92551 whole entry): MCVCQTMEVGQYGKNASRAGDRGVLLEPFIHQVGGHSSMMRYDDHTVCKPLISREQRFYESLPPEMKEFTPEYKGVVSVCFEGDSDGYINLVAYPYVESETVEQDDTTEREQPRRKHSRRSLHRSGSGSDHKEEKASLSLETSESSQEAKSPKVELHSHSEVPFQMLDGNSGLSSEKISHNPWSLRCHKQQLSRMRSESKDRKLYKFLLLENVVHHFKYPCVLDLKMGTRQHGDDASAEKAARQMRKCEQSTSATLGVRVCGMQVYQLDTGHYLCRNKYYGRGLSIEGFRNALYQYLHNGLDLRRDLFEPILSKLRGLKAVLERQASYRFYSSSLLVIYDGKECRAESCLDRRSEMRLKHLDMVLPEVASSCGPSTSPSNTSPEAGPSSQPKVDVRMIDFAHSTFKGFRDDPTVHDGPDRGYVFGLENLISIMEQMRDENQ

IC50 | SMILES
94.4 µM | O=c1[nH]cnc2cnc(N3CCCC3)cc12
45.2 µM | O=c1[nH]cnc2ccc([N+]3=Cc4ccccc4CCC3)cc12
15.4 µM | CN(Cc1ccccc1)c1ccc2nc[nH]c(=O)c2c1
2.25 µM | O=c1[nH]cnc2c(Cl)cc(N3CCCC3)cc12
13.3 µM | O=c1[nH]cnc2ccc(OCc3ccccc3)cc12
> 200 µM | O=C1CCCc2ccc(N3CCCC3)cc21
> 200 µM | CN(C)C1CCN(c2ccc3nc[nH]c(=O)c3c2)CC1
12.2 µM | O=c1[nH]cnc2cc(F)c(N3CCCC3)cc12
> 200 µM | Nc1nc2ccc(N3CCCC3)cc2c(=O)[nH]1
118 µM | O=c1[nH]cnc2ncc(/C=C/c3ccccc3)cc12
> 200 µM | Cc1nc2ccc(N3CCCC3)cc2c(=O)[nH]1
71.5 µM | O=c1[nH]cnc2ccc(NC3CCCCC3)cc12
22.7 µM | Nc1ccc(N2CCCC2)cc1C(=O)O
0.595 µM | CC1(C)C[N+](c2ccc3nc[nH]c(=O)c3c2)=Cc2ccccc21
> 200 µM | O=c1[nH]cnc2c(Cl)cc(/C=C/c3ccccc3)cc12
30.7 µM | O=c1[nH]cnc2ccc(NCc3ccccc3)cc12
> 200 µM | O=c1[nH]cnc2ccc(N3CCCC3)c(Br)c12
15.3 µM | O=c1[nH]cnc2ccc(N3CCC(c4ccccc4)CC3)cc12
67.2 µM | O=C(O)c1cc(/C=C/c2ccccc2)cc2c(=O)[nH]cnc12
32.4 µM | O=c1[nH]cnc2ccc(/C=C/c3ccccn3)cc12
0.51 µM | O=c1[nH]cnc2ccc(N3CCCc4ccccc4C3)cc12
48.9 µM | Nc1ncnc2ccc(N3CCCC3)cc12
25.9 µM | O=c1[nH]cnc2ccc(N3CCCCC3)cc12
> 200 µM | O=S1(=O)NC=Nc2ccc(N3CCCC3)cc21
1.07 µM | O=c1[nH]cnc2ccc(N3Cc4cccc(F)c4C3)cc12

The next lines start with the compound.

SMILES | IC50
O=C1CCNc2ccc(/C=C/c3ccccc3)cc21 | > 200 µM
O=c1[nH]cnc2c(Cl)cc(N3CCc4ccccc4CC3)cc12 | > 200 µM
O=c1[nH]cnc2c(F)cc(N3CCCC3)cc12 | 6.84 µM
O=c1[nH]cnc2ccc(N3CCCC3)nc12 | > 200 µM
c1cc2c(cc1N1CCCC1)CNCC2 | > 200 µM
O=c1[nH]cnc2c([N+](=O)[O-])cc(N3CCCC3)cc12 | > 200 µM
O=c1[nH]c(=O)c2cc(N3CCCC3)ccc2[nH]1 | > 200 µM
Nc1cc(N2CCCC2)cc2c(=O)[nH]cnc12 | 189 µM
O=c1[nH]cnc2ccc(/C=C/c3ccncc3)cc12 | 127 µM
O=c1[nH]cnc2ccc(N3CCCC3)c(Cl)c12 | > 200 µM
Cn1cnc2ccc(/C=C/c3ccccc3)cc2c1=O | 112 µM
O=C1NCCc2ccc(N3CCCC3)cc21 | > 200 µM
O=c1[nH]cnc2cc(N3CCCC3)c(Br)cc12 | 47.6 µM
CN(C)c1ccc2nc[nH]c(=O)c2c1 | 75.4 µM
Nc1cc2nc[nH]c(=O)c2cc1N1CCCC1 | 34.3 µM
Nc1cc2nc[nH]c(=O)c2cc1N1Cc2ccccc2C1 | 0.757 µM
Cc1cc(F)ccc1-c1cc(O)c2nc[nH]c(=O)c2c1 | > 200 µM
O=c1[nH]cnc2ccc([N+]3=Cc4ccccc4CC3)cc12 | 2.88 µM
Cc1nc2ccc(/C=C/c3ccccc3)cc2c(=O)[nH]1 | 85.3 µM
CN1CCN(c2ccc3nc[nH]c(=O)c3c2)CC1 | > 200 µM
CN(C)c1cccc(-c2cc(O)c3nc[nH]c(=O)c3c2)c1 | 37.4 µM
O=c1[nH]cnc2cc([N+](=O)[O-])c(N3Cc4ccccc4C3)cc12 | 2.41 µM
O=c1[nH]cnc2ccc(N3CCc4ccccc4C3)cc12 | 1.12 µM

Biological target: T1, Inositol hexakisphosphate kinase 2 (Homo sapiens, UniProt Q9UHH9)
T1 sequence (Q9UHH9 whole entry): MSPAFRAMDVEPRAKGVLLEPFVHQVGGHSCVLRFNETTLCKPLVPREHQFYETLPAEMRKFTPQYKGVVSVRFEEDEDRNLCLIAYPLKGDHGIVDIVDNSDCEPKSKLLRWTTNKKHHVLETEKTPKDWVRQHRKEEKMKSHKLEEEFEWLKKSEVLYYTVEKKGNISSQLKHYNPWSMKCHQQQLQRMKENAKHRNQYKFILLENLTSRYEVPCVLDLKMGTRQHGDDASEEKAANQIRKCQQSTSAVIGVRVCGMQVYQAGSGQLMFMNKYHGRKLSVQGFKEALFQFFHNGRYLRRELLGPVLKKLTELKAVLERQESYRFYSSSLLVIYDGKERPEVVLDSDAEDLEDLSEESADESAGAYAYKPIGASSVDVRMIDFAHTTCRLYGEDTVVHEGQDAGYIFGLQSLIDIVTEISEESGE
Experiment: Inhibition of IP6K2 (unknown origin) incubated for 2 hrs in presence of ATP by ADPGlo reagent based assay

IC50 | SMILES
> 200 µM | O=c1[nH]cnc2ccc(N3CCc4ccccc4CC3)cc12
51.5 µM | O=c1[nH]cnc2ccc(CCc3ccccc3)cc12
> 200 µM | O=c1[nH]cnc2ccc(N3C[C@H]4CCCC[C@H]4C3)cc12
96.3 µM | O=c1[nH]cnc2ccc(C#Cc3ccccc3)cc12
91.9 µM | O=c1[nH]cnc2ccc(N3CC[C@H]4CCCC[C@@H]4C3)cc12
> 200 µM | O=c1[nH]cnc2ccc(N3CCCC3)cc12
28.8 µM | N#Cc1cc(N2CCCC2)cc2c(=O)[nH]cnc12
> 200 µM | O=c1[nH]cnc2ccc(C3=Cc4ccccc4C3)cc12

More lines, now with the values behind:

SMILES | IC50
O=c1[nH]cnc2ccc(/C=C/c3ccccc3)cc12 | 193 µM
O=c1[nH]cnc2ccc(/C=C/c3ccc(F)cc3)cc12 | > 200 µM
